Reference: US20150368692A1, “ANALYSIS OF THE ESTERIFICATION LEVEL OF CEREBROSTEROL AS A TOOL FOR DIAGNOSIS AND/OR PROGNOSIS OF NEURODEGENERATION” (INBIOS S.R.L., priority 2013, published 2015)

Key:
[1] = tested on: SH-SY5Y neuronal cells (neuroblastoma line), differentiated with retinoic acid; assay: Survival of differentiated SH-SY5Y neuronal cells (Crystal Violet staining, absorbance at 595 nm); assay type: cell-based, human; conditions: for cells survived after incubation: 5 h at 37° C./5% CO2 in DMEM and 0.5% HSA, then 16 h in fresh medium
Protocol: FIG. 2. Box A. Cells from the SH-SY5Y cell line were differentiated by incubation with 10 μM of retinoic acid in DMEM containing 0.5% foetal bovine serum, 1% Pen-Strep, 1% L-glutamine, 1% of a mixture of factors known as “N2 medium supplement”, essentially in accordance with a published procedure. The incubation was performed for 3 days at 37° C. in an atmosphere containing 5% CO2 (37° C./5% CO2). 7×10^3 cells were laid in each well of a microplate and then challenged with different concentrations of 24(S)OH—CNE and finally analysed in order to evaluate the survival of the cells, as described in Example 1. Each sample was analysed in three separate experiments. The data are expressed as means±SD (SD=standard deviation). Box B. 20 μM^3H-24(S)OH—CNE (300,000 dpm/mL) was incubated with 250 ng/mL purified LCAT and proteoliposomes containing 2 μM ApoA-I and 266 μM phosphatidylcholine (ApoA-I/PC) in DMEM with 0.5% HSA for various periods of time (from 1 to 6 h) at 37° C./5% CO2. After incubation, the esterified and non-esterified forms of oxysterol were extracted and analysed as described in Example 1. The level of esterification is indicated in terms of percentage of ^3H-24(S)OH-CE. Each sample was analysed in three separate experiments. The data are expressed as means±SD. Box C. Differentiated cells, as in the key of box A, were challenged with 20 μM ^3H-24(S)OH—CNE (300,000 dpm/mL) previously treated or untreated, as described for box B, with LCAT and ApoA-I/PC for 5 h. […] The culture medium was analysed in order to measure any unincorporated radioactive material, whereas the lysate was analysed in order to measure any incorporated radioactive material (expressed as % of the sum of incorporated radioactive material plus unincorporated radioactive material). […] Each sample was analysed in three separate experiments. The data are expressed as means±SD.
FIG. 3. […] Cellular survival after 5 h of incubation at 37° C./5% CO2, was evaluated as described in Example 1. Each sample was analysed in three separate experiments. The data are expressed as means±SD. […]

LCAT [2] = target: T1, LCAT (Homo sapiens, UniProt P04180); assay: Activity of LCAT in esterifying 3H-24(S)OH-CNE after oxidative treatment of the enzyme; assay type: biochemical; conditions: 1 mM SIN-1 as oxidant, 20 min pre-incubation, stopped with antioxidant mixture; 2 μM ApoA-I/266 μM phosphatidylcholine; control 19.11±0.49; P=2.4×10^−3
T1 sequence (P04180 25-440): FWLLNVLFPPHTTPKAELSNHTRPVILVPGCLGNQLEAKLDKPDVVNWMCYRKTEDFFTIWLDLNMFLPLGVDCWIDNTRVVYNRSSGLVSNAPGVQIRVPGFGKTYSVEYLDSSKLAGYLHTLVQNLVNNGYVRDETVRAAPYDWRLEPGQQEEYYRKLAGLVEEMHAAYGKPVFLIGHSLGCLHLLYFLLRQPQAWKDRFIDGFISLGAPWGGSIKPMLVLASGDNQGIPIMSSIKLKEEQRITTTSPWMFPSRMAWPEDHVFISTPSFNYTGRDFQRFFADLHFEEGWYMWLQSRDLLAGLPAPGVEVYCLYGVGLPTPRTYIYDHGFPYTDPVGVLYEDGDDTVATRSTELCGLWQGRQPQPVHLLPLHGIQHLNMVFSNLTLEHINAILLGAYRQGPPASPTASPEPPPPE
Protocol: FIG. 5. An outline of the process to which three samples have been subjected is shown at the top. At the bottom, the components of each sample are shown in a table. […] Purified LCAT (250 ng/mL) was pre-incubated and added to the culture medium for cellular incubation (containing ApoA-I/PC) as indicated in the table at the bottom. 1 mM Asc was used to separate the pre-incubation from the incubation in the processes to which the samples were subjected. Each sample was analysed in three separate experiments. The data, expressed as means±SD, were analysed using the Graph Pad Prism 3 program (Graph Pad Software; San Diego, Calif., USA) in order to determine the significance of the difference of B from A and C (P=10^−5).
The purified enzyme LCAT was treated with an oxidative stress system and was then incubated with 24(S)OH—CNE in order to evaluate the efficiency of esterification of this oxysterol. […] The measurement of the absorbance of ABTS^[…]+ (at 414 nm) […], at 30° C., oxidative species which effectively oxidise ABTS and that the addition of 1 mM Asc to the mixture prevents or blocks oxidation of the target. […]

LCAT [3] = target: T1, LCAT; assay: Esterification of 3H-24(S)OH-CNE by purified LCAT with ApoA-I/PC proteoliposomes (TLC, liquid scintillation); assay type: biochemical; conditions: 20 μM substrate, 250 ng/mL LCAT, proteoliposomes 2 μM ApoA-I/266 μM phosphatidylcholine, 5 h pre-incubation at 37° C./5% CO2
Protocol: FIG. 2. Box A. Cells from the SH-SY5Y cell line were differentiated by incubation with 10 μM of retinoic acid in DMEM containing 0.5% foetal bovine serum, 1% Pen-Strep, 1% L-glutamine, 1% of a mixture of factors known as “N2 medium supplement”, essentially in accordance with a published procedure. The incubation was performed for 3 days at 37° C. in an atmosphere containing 5% CO2 (37° C./5% CO2). 7×10^3 cells were laid in each well of a microplate and then challenged with different concentrations of 24(S)OH—CNE and finally analysed in order to evaluate the survival of the cells, as described in Example 1. Each sample was analysed in three separate experiments. The data are expressed as means±SD (SD=standard deviation). […] After incubation, the esterified and non-esterified forms of oxysterol were extracted and analysed as described in Example 1. […] Each sample was analysed in three separate experiments. The data are expressed as means±SD. […] The culture medium was analysed in order to measure any unincorporated radioactive material, whereas the lysate was analysed in order to measure any incorporated radioactive material (expressed as % of the sum of incorporated radioactive material plus unincorporated radioactive material). […] Each sample was analysed in three separate experiments. The data are expressed as means±SD. […]

[4] = tested on: SH-SY5Y neuronal cells (neuroblastoma line), differentiated with retinoic acid; assay: Incorporation of 3H-24(S)OH-CNE in differentiated SH-SY5Y cells and its esterification in the cells; assay type: cell-based, human; conditions: 4 h of incubation; for 3H-24(S)OH-CNE incorporated in the cultured cells: 20 μM
Protocol: FIG. 2. Box A. Cells from the SH-SY5Y cell line were differentiated by incubation with 10 μM of retinoic acid in DMEM containing 0.5% foetal bovine serum, 1% Pen-Strep, 1% L-glutamine, 1% of a mixture of factors known as “N2 medium supplement”, essentially in accordance with a published procedure. The incubation was performed for 3 days at 37° C. in an atmosphere containing 5% CO2 (37° C./5% CO2). 7×10^3 cells were laid in each well of a microplate and then challenged with different concentrations of 24(S)OH—CNE and finally analysed in order to evaluate the survival of the cells, as described in Example 1. Each sample was analysed in three separate experiments. The data are expressed as means±SD (SD=standard deviation). Box B. 20 μM^3H-24(S)OH—CNE (300,000 dpm/mL) was incubated with 250 ng/mL purified LCAT and proteoliposomes containing 2 μM ApoA-I and 266 μM phosphatidylcholine (ApoA-I/PC) in DMEM with 0.5% HSA for various periods of time (from 1 to 6 h) at 37° C./5% CO2. After incubation, the esterified and non-esterified forms of oxysterol were extracted and analysed as described in Example 1. The level of esterification is indicated in terms of percentage of ^3H-24(S)OH-CE. Each sample was analysed in three separate experiments. The data are expressed as means±SD. Box C. Differentiated cells, as in the key of box A, were challenged with 20 μM ^3H-24(S)OH—CNE (300,000 dpm/mL) previously treated or untreated, as described for box B, with LCAT and ApoA-I/PC for 5 h. After various incubation times (from 1 to 6 h), the cells were separated from the culture medium and lysed. The culture medium was analysed in order to measure any unincorporated radioactive material, whereas the lysate was analysed in order to measure any incorporated radioactive material (expressed as % of the sum of incorporated radioactive material plus unincorporated radioactive material). […] Each sample was analysed in three separate experiments. The data are expressed as means±SD.
In Step 1B, 20 μM of ^3H-24(S)OH—CNE (300,000 dpm/mL) was pre-incubated in culture medium (DMEM containing 0.5% HSA) in the presence or absence of 250 ng/mL LCAT, purified in accordance with a published procedure, and proteoliposomes containing ApoA-I and phosphatidylcholine (ApoA-I/PC), prepared in accordance with a published procedure omitting cholesterol. […] In particular, the amount of esterified ^3H-24(S)OH—CNE (that is to say ^3H-24(S)OH-CE) was measured as detailed hereinafter. […] The stationary phase regions harbouring ^3H-24(S)OH-CE (Rf=0.70-0.75) and ^3H-24(S)OH—CNE (Rf=0.25-0.35) were separately removed and then analysed for the radioactivity content thereof by liquid scintillation using the Packard TriCarb 2100TR counter (Global Medical Instrumentation, Ramsey, Mich., USA). […]

[5] = medium pre-incubated in the presence of LCAT and proteoliposomes
[6] = medium pre-incubated without LCAT and proteoliposomes

CC(C)[C@@H](O)CC[C@@H](C)[C@H]1CC[C@H]2[C@@H]3CC=C4C[C@@H](O)CC[C@]4(C)[C@H]3CC[C@]12C [24(S)OH—CNE, cerebrosterol]
cells survived after incubation ([1]; 10 μM 24(S)OH-CNE): 58% | cells survived after incubation ([1]; 20 μM 24(S)OH-CNE): 43%

[NH-]c1c[n+](N2CCOCC2)no1 [SIN-1, 3-morpholino-sidnonimine]
LCAT activity of esterification of 24(S)OH-CNE (mean±SD) (LCAT [2]): 12.77 ± 0.78 nmol/h/mL

[3H]C(C([3H])[C@@H](C)[C@H]1CC[C@H]2[C@@H]3CC=C4C[C@@H](O)CC[C@]4(C)[C@H]3CC[C@]12C)[C@H](O)C(C)C (stereo partly drawn) [^3H-24(S)OH—CNE]
3H-24(S)OH-CNE found esterified by LCAT (mean±SD) (LCAT [3]): 49.3±2.8% | percentage of 3H-24(S)OH-CE in the cells [4, 5]: approximately 50% | 3H-24(S)OH-CNE incorporated in the cultured cells [4, 5]: 6% | percentage of 3H-24(S)OH-CE in the cells [4, 6]: approximately 60% | 3H-24(S)OH-CNE incorporated in the cultured cells [4, 6]: 14%

B1: LCAT: lecithin-cholesterol acyltransferase, E.C. 2.3.1.43; purified enzyme, used at 250 ng/mL (protein, UniProt P04180 25-440, looked up)
Phosphatidylcholine-sterol …: T1 sequence (P04180 25-440)
effect of LCAT treatment of the culture medium on the toxic effect of 24(S)OH-CNE on the cells ([1]; 20 μM 24(S)OH-CNE pre-incubated 5 h with LCAT and proteoliposomes, cells 5 h, then 16 h fresh medium, versus control treatment without LCAT): significantly reduced the toxic effect
